In the test the target is human recombinant GABAA α5β3γ2 receptor (Homo sapiens (Human), UniProt P18507+P31644). The experiment in a line: Radioligand ([3H]Ro151788) receptor binding assay. The conditions noted are these: membranes of HEK cells expressing human recombinant GABAA α5β3γ2; 0.5 nM [3H]Ro151788; 60 minutes at 4° C.; read-out: hGABAA α5 Ki. The method, then: The GABAA α5β3γ2 protein used for the receptor binding assay was derived from membranes produced from HEK cells (Millipore CYL3073) expressing the human recombinant GABAA α5β3γ2 receptor. Cells were stored and cultured in-house according to the instructions provided by the vendor (Millipore). Cell pellet was homogenized in 10 times modified Krebs Henseleit buffer (membrane preparation buffer): 20 mM Tris, 120 mM NaCl, 100 mM KCl, 25 mM CaCl2 and 25 mM MgCl2 pH=7.4 at 4° C. using Ultra Turrax (Janke&Kunkel) maximal speed for 15 seconds. The homogenate was centrifuged at 40,000 g for 30 minutes at 4° C. Supernatant was discarded and the resulting pellet was washed in membrane preparation buffer. Pellet was resuspended in membrane preparation buffer and aliquots of 1.4 mL ampules were stored at −70° C. until use.
human recombinant GABAA α5β3γ2 receptor, sequence (P31644 32-462): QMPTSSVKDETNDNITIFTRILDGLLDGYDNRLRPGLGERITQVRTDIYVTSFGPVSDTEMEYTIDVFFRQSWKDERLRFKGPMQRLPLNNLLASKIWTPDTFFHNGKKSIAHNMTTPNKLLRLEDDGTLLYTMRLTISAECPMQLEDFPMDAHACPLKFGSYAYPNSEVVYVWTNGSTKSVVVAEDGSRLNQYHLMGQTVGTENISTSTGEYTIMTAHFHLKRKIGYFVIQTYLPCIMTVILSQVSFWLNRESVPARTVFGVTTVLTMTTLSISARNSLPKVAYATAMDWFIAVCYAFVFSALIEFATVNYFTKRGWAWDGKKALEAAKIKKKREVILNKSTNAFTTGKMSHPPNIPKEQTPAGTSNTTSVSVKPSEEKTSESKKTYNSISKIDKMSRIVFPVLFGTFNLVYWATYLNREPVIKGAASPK
human recombinant GABAA α5β3γ2 receptor, sequence (P28472 26-473 partner): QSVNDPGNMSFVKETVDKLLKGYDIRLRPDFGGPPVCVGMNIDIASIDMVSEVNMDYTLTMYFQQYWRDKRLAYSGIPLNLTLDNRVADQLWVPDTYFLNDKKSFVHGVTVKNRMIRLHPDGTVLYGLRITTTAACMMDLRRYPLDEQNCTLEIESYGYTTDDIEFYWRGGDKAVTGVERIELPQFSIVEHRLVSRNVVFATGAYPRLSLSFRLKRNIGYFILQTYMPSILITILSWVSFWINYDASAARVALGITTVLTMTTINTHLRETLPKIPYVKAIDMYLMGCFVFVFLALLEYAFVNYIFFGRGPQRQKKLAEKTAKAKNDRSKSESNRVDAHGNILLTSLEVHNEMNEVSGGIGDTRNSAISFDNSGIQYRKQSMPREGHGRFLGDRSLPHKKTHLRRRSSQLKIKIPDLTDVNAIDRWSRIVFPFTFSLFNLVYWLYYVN
human recombinant GABAA α5β3γ2 receptor, sequence (P18507 40-475): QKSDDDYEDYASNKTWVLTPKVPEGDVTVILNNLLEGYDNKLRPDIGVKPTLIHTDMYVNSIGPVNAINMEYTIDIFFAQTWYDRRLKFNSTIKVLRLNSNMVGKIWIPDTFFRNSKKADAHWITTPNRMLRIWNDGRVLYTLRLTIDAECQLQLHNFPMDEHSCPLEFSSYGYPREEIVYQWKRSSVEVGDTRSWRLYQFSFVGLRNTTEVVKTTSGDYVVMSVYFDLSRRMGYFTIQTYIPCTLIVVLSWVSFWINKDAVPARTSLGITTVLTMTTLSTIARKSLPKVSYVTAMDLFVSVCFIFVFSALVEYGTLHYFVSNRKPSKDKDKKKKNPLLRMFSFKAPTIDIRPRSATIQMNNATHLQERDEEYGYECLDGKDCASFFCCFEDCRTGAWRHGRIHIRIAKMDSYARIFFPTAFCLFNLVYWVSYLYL
Receptor binding assays were performed in 96-well format in deep-well plates. For each 96-well plate one ampule of membrane homogenate was thawed and diluted in binding buffer (50 mM Tris pH=7.4, 100 mM KCl) and 200 μL was dispensed into each well. Radioligand [^3H]Ro151788 (Perkin Elmer: NET757250UC) was prepared in binding buffer and added to each well in 50 μL volume to give final concentration of 0.5 nM. Test compounds in suitable concentration(s) were added in additional 50 μL. The final assay volume was 300 μL. Incubation was carried out for 60 minutes at 4° C. For non-specific binding 10 μM unlabeled diazepam was used. After incubation samples were filtered over UniFilter® GF/BT using Filtermate Harvester (Perkin Elmer) and washed with 5×1 mL binding buffer. The plate was dried at 40° C. for an hour and 40 μL Microscint (Perkin Elmer) scintillation cocktail was added to each well. The plate was read in Microbeta (Perkin Elmer).
The specific radioligand binding (SB) was defined as the difference between total binding (Tot) and the non-specific binding (NSB). Results are expressed as a percent inhibition of specific binding obtained in the presence of compound of interest.
For IC50 and Ki determination a minimum of six drug concentrations in triplicate were used. IC50 values (i.e. concentration of compound giving 50% inhibition of specific binding) were calculated from concentration-displacement curves by sigmoidal fitting using Origin 7.5 software. Ki values (i.e. inhibition constants) were calculated using the Cheng-Prusoff equation Ki=IC50/[1+(L/KD)], where [L] is the radioligand concentration and KD the affinity of the labelled ligand for receptor. KD was determined from the Saturation analyses.

What is called Ki is a dissociation constant, usually derived from enzyme kinetics or from competition with a known ligand. Regarding `Cc1nnn(-c2ccc(C(F)(F)F)nc2)c1COc1cc2c(cn1)CN(C(=O)C1CC1)CC2` [Example 51, 2-cyclopropanecarbonyl-6-({4-methyl-1-[6-(trifluoromethyl)pyridin-3-yl]-1H-1,2,3-triazol-5-yl}methoxy)-1,2,3,4-tetrahydro-2,7-naphthyridine], the Ki turned out to be 31 nM.

Consider `CC(=O)N1CCc2cc(OCc3c(C)nnn3-c3ccc(C(F)(F)F)nc3)nnc2C1` [Example 53, 1-[3-({4-methyl-1-[6-(trifluoromethyl)pyridin-3-yl]-1H-1,2,3-triazol-5-yl}methoxy)-5,8-dihydropyrido[3,4-c]pyridazin-7(6H)-yl]ethanone], for which the Ki was found to be 99.1 nM.

In the case of `CC(=O)N1CCc2cc(OCc3c(C)nnn3-c3ccc(C(F)F)nc3)ncc2C1` [Example 55, 1-[6-({1-[6-(difluoromethyl)pyridin-3-yl]-4-methyl-1H-1,2,3-triazol-5-yl}methoxy)-3,4 dihydro-2,7-naphthyridin-2(1H)-yl]ethanone], the Ki was 1.1 nM.

In the case of `CCC(=O)N1CCc2cc(OCc3c(C)nnn3-c3ccc(C(F)F)nc3)ncc2C1` [Example 56, 1-[6-({1-[6-(difluoromethyl)pyridin-3-yl]-4-methyl-1H-1,2,3-triazol-5-yl}methoxy)-3,4 dihydro-2,7-naphthyridin-2(1H)-yl]propan-1-one], the Ki came out at 1.6 nM.

With `Cc1nnn(-c2ccc(C(F)F)nc2)c1COc1cc2c(cn1)CN(C(=O)CF)CC2` [Example 57, 2-fluoro-1-[6-({4-methyl-1-[6-(difluoromethyl)pyridin-3-yl]-1H-1,2,3-triazol-5-yl}methoxy)-1,2,3,4-tetrahydro-2,7-naphthyridin-2-yl]ethan-1-one], the Ki was determined as 0.9 nM.

On to `CC(=O)N1CCc2cc(OCc3c(-c4ccc(C)nc4)nnn3C)ncc2C1` [Example 60, 1-(6-{[1-methyl-4-(6-methylpyridin-3-yl)-1H-1,2,3-triazol-5-yl]methoxy}-1,2,3,4-tetrahydro-2,7-naphthyridin-2-yl)ethan-1-one], for which the Ki stood at 22 nM.

Turning to `CCC(=O)N1CCc2cc(OCc3c(-c4ccc(C)nc4)nnn3C)ncc2C1` [Example 62, 1-(6-{[1-methyl-4-(6-methylpyridin-3-yl)-1H-1,2,3-triazol-5-yl]methoxy}-1,2,3,4-tetrahydro-2,7-naphthyridin-2-yl)propan-1-one], the inhibition constant Ki was found to be 33 nM.

Take `Cc1ccc(-c2nnn(C)c2COc2cc3c(cn2)CN(C(=O)C(C)C)CC3)cn1` [Example 63, 2-methyl-1-(6-{[1-methyl-4-(6-methylpyridin-3-yl)-1H-1,2,3-triazol-5-yl]methoxy}-1,2,3,4-tetrahydro-2,7-naphthyridin-2-yl)propan-1-one]: the Ki worked out at 43 nM.

For `Cc1ccc(-c2nnn(C)c2COc2cc3c(cn2)CN(C(=O)C2CC2)CC3)cn1` [Example 65, 2-cyclopropanecarbonyl-6-{[1-methyl-4-(6-methylpyridin-3-yl)-1H-1,2,3-triazol-5-yl]methoxy}-1,2,3,4-tetrahydro-2,7-naphthyridine], the Ki came out at 52 nM.

On to `Cc1ccc(-c2nnn(C)c2COc2cc3c(cn2)CN(C(=O)CF)CC3)cn1` [Example 68, 2-fluoro-1-(6-{[1-methyl-4-(6-methylpyridin-3-yl)-1H-1,2,3-triazol-5-yl]methoxy}-1,2,3,4-tetrahydro-2,7-naphthyridin-2-yl)ethan-1-one], for which the Ki was 9.1 nM.
